Experimental data as given in patent US10807992B2, “Single enantiomer antiparasitic compounds” (priority 2017, dated 2020).

Tested on: Ctenocephalides felis
Assay: In vitro contact activity against fleas (coated substrate)
Conditions: for mortality at 0.006 ppm: Trial 3, dose 0.006 ppm; for mortality at 0.024 ppm: Trial 3, dose 0.024 ppm; for mortality at 0.098 ppm: Trial 3, dose 0.098 ppm; for mortality at 0.39 ppm: Trial 3, dose 0.39 ppm; for mortality at 1.56 ppm: Trial 3, dose 1.56 ppm; for mortality at 6.25 ppm: Trial 3, dose 6.25 ppm; for mortality at 25 ppm: Trial 3, dose 25 ppm; for mortality at 100 ppm: Trial 3, dose 100 ppm
Experimental: Ctenocephalides felis (Avista Pharma, Inc., RTP, NC), 1-7days post hatch, held in an environmental chamber at 24° C., 85% humidity.
For flea contact tests, vial caps were pre-drilled with a single hole in the center of each cap to allow air exchange. A filter paper (Whatman Grade 540 2.1 cm) was placed in the lid of each vial. Pipe cleaners cut to 0.5 inches were inserted in each test vial. An aliquot was taken from each compound stock and added to an acetone/triton solution to achieve the desired top concentrations for the study. Serial dilutions were conducted from the top dose (i.e. 100 ppm) to achieve the desired concentration for EC50 and EC90 determination. The final DMSO concentration was 0.5%. A 75 μL aliquot of each compound formulation was added to each 0.5 inch pipe cleaner contained in the treatment vial. The vials were loosely capped and allowed to dry for a minimum of four hours in a chemical fume hood.
Compounds tested were C1 racemate, the C1 (R) enantiomer, and the C1 (S) enantiomer. For Trial 3, the C1 (R) enantiomer and the C1 (S) enantiomer were further chiral purified to achieve >99% purity.
For both contact and ingestion assays, ten newly emerged unfed adult fleas, 0-7 days old Ctenocephalides felis, from a laboratory colony, were aspirated into each vial or cage. The test vials for contact assays were held in an environmental chamber at 24° C., 80% humidity with light/dark cycles (12 hours each). The cages for flea ingestion assays were held in a temperature-controlled artificial feeding apparatus to allow continual access to organic bovine blood containing the desired concentration of compound. Fresh aliquots of compound-spiked bovine blood were provided daily for the duration of the study.
Fleas were evaluated for percent mortality at various time points between 2 hours and 48 hours post infestation. Fleas showing normal movement and/or jumping ability were considered viable and those showing no movement after tapping the vials were scored as dead.

O=C(CC(F)(F)F)N1CC2(C1)OCc1cc(C3=NSC(c4cc(Cl)c(F)c(Cl)c4)(C(F)(F)F)C3)ccc12 (racemic) [C1 racemate, 1-[6-[5-(3,5-dichloro-4-fluoro-phenyl)-5-(trifluoromethyl)-4H-isothiazol-3-yl]spiro[1H-isobenzofuran-3,3′-azetidine]-1′-yl]-3,3,3-trifluoro-propan-1-one]
80%: mortality at 25 ppm (48 h, Rep1)
70%: mortality at 100 ppm (24 h, Rep1) | mortality at 25 ppm (48 h, Rep2)
40%: mortality at 100 ppm (24 h, Rep2)
0%: mortality at 0.006 ppm (6 h, Rep1) | mortality at 0.006 ppm (6 h, Rep2) | mortality at 0.024 ppm (6 h, Rep1) | mortality at 0.024 ppm (6 h, Rep2) | mortality at 0.098 ppm (6 h, Rep1) | mortality at 0.098 ppm (6 h, Rep2) | mortality at 0.39 ppm (6 h, Rep1) | mortality at 0.39 ppm (6 h, Rep2) | mortality at 1.56 ppm (6 h, Rep1) | mortality at 1.56 ppm (6 h, Rep2) | mortality at 6.25 ppm (6 h, Rep1) | mortality at 6.25 ppm (6 h, Rep2) | mortality at 25 ppm (6 h, Rep1) | mortality at 25 ppm (6 h, Rep2) | mortality at 100 ppm (6 h, Rep1) | mortality at 100 ppm (6 h, Rep2) | mortality at 0.006 ppm (24 h, Rep1) | mortality at 0.006 ppm (24 h, Rep2) | mortality at 0.024 ppm (24 h, Rep1) | mortality at 0.024 ppm (24 h, Rep2) | mortality at 0.098 ppm (24 h, Rep1) | mortality at 0.098 ppm (24 h, Rep2) | mortality at 0.39 ppm (24 h, Rep1) | mortality at 0.39 ppm (24 h, Rep2) | mortality at 1.56 ppm (24 h, Rep1) | mortality at 1.56 ppm (24 h, Rep2) | mortality at 6.25 ppm (24 h, Rep1) | mortality at 6.25 ppm (24 h, Rep2) | mortality at 25 ppm (24 h, Rep1) | mortality at 25 ppm (24 h, Rep2) | mortality at 0.006 ppm (48 h, Rep1) | mortality at 0.006 ppm (48 h, Rep2) | mortality at 0.024 ppm (48 h, Rep1) | mortality at 0.024 ppm (48 h, Rep2) | mortality at 0.098 ppm (48 h, Rep1) | mortality at 0.098 ppm (48 h, Rep2) | mortality at 0.39 ppm (48 h, Rep1) | mortality at 0.39 ppm (48 h, Rep2) | mortality at 1.56 ppm (48 h, Rep1) | mortality at 1.56 ppm (48 h, Rep2) | mortality at 6.25 ppm (48 h, Rep1) | mortality at 6.25 ppm (48 h, Rep2)
100%: mortality at 100 ppm (48 h, Rep1) | mortality at 100 ppm (48 h, Rep2)

O=C(CC(F)(F)F)N1CC2(C1)OCc1cc(C3=NS[C@](c4cc(Cl)c(F)c(Cl)c4)(C(F)(F)F)C3)ccc12 [C1 (R) enantiomer, (R)-1-[6-[5-(3,5-dichloro-4-fluoro-phenyl)-5-(trifluoromethyl)-4H-isothiazol-3-yl]spiro[1H-isobenzofuran-3,3′-azetidine]-1′-yl]-3,3,3-trifluoro-propan-1-one]
0%: mortality at 0.006 ppm (6 h, Rep1) | mortality at 0.006 ppm (6 h, Rep2) | mortality at 0.024 ppm (6 h, Rep1) | mortality at 0.024 ppm (6 h, Rep2) | mortality at 0.098 ppm (6 h, Rep1) | mortality at 0.098 ppm (6 h, Rep2) | mortality at 0.39 ppm (6 h, Rep1) | mortality at 0.39 ppm (6 h, Rep2) | mortality at 1.56 ppm (6 h, Rep1) | mortality at 1.56 ppm (6 h, Rep2) | mortality at 6.25 ppm (6 h, Rep1) | mortality at 6.25 ppm (6 h, Rep2) | mortality at 25 ppm (6 h, Rep1) | mortality at 25 ppm (6 h, Rep2) | mortality at 100 ppm (6 h, Rep1) | mortality at 100 ppm (6 h, Rep2) | mortality at 0.006 ppm (24 h, Rep1) | mortality at 0.006 ppm (24 h, Rep2) | mortality at 0.024 ppm (24 h, Rep1) | mortality at 0.024 ppm (24 h, Rep2) | mortality at 0.098 ppm (24 h, Rep1) | mortality at 0.098 ppm (24 h, Rep2) | mortality at 0.39 ppm (24 h, Rep1) | mortality at 0.39 ppm (24 h, Rep2) | mortality at 1.56 ppm (24 h, Rep1) | mortality at 1.56 ppm (24 h, Rep2) | mortality at 6.25 ppm (24 h, Rep1) | mortality at 6.25 ppm (24 h, Rep2) | mortality at 25 ppm (24 h, Rep1) | mortality at 25 ppm (24 h, Rep2) | mortality at 100 ppm (24 h, Rep1) | mortality at 100 ppm (24 h, Rep2) | mortality at 0.006 ppm (48 h, Rep1) | mortality at 0.006 ppm (48 h, Rep2) | mortality at 0.024 ppm (48 h, Rep1) | mortality at 0.024 ppm (48 h, Rep2) | mortality at 0.098 ppm (48 h, Rep1) | mortality at 0.098 ppm (48 h, Rep2) | mortality at 0.39 ppm (48 h, Rep1) | mortality at 0.39 ppm (48 h, Rep2) | mortality at 1.56 ppm (48 h, Rep1) | mortality at 1.56 ppm (48 h, Rep2) | mortality at 6.25 ppm (48 h, Rep1) | mortality at 6.25 ppm (48 h, Rep2) | mortality at 25 ppm (48 h, Rep1) | mortality at 25 ppm (48 h, Rep2) | mortality at 100 ppm (48 h, Rep1) | mortality at 100 ppm (48 h, Rep2)

O=C(CC(F)(F)F)N1CC2(C1)OCc1cc(C3=NS[C@@](c4cc(Cl)c(F)c(Cl)c4)(C(F)(F)F)C3)ccc12 [C1 (S) enantiomer, (S)-1-[6-[5-(3,5-dichloro-4-fluoro-phenyl)-5-(trifluoromethyl)-4H-isothiazol-3-yl]spiro[1H-isobenzofuran-3,3′-azetidine]-1′-yl]-3,3,3-trifluoro-propan-1-one]
100%: mortality at 100 ppm (24 h, Rep1) | mortality at 100 ppm (24 h, Rep2) | mortality at 25 ppm (48 h, Rep1) | mortality at 25 ppm (48 h, Rep2) | mortality at 100 ppm (48 h, Rep1) | mortality at 100 ppm (48 h, Rep2)
70%: mortality at 6.25 ppm (48 h, Rep1)
30%: mortality at 25 ppm (24 h, Rep1) | mortality at 1.56 ppm (48 h, Rep2) | mortality at 6.25 ppm (48 h, Rep2)
10%: mortality at 6.25 ppm (24 h, Rep1) | mortality at 6.25 ppm (24 h, Rep2) | mortality at 0.098 ppm (48 h, Rep1) | mortality at 0.098 ppm (48 h, Rep2) | mortality at 0.39 ppm (48 h, Rep1) | mortality at 1.56 ppm (48 h, Rep1)
0%: mortality at 0.006 ppm (6 h, Rep1) | mortality at 0.006 ppm (6 h, Rep2) | mortality at 0.024 ppm (6 h, Rep1) | mortality at 0.024 ppm (6 h, Rep2) | mortality at 0.098 ppm (6 h, Rep1) | mortality at 0.098 ppm (6 h, Rep2) | mortality at 0.39 ppm (6 h, Rep1) | mortality at 0.39 ppm (6 h, Rep2) | mortality at 1.56 ppm (6 h, Rep1) | mortality at 1.56 ppm (6 h, Rep2) | mortality at 6.25 ppm (6 h, Rep1) | mortality at 6.25 ppm (6 h, Rep2) | mortality at 25 ppm (6 h, Rep1) | mortality at 25 ppm (6 h, Rep2) | mortality at 100 ppm (6 h, Rep1) | mortality at 100 ppm (6 h, Rep2) | mortality at 0.006 ppm (24 h, Rep1) | mortality at 0.006 ppm (24 h, Rep2) | mortality at 0.024 ppm (24 h, Rep1) | mortality at 0.024 ppm (24 h, Rep2) | mortality at 0.098 ppm (24 h, Rep1) | mortality at 0.098 ppm (24 h, Rep2) | mortality at 0.39 ppm (24 h, Rep1) | mortality at 0.39 ppm (24 h, Rep2) | mortality at 1.56 ppm (24 h, Rep1) | mortality at 1.56 ppm (24 h, Rep2) | mortality at 0.006 ppm (48 h, Rep1) | mortality at 0.006 ppm (48 h, Rep2) | mortality at 0.024 ppm (48 h, Rep1) | mortality at 0.024 ppm (48 h, Rep2) | mortality at 0.39 ppm (48 h, Rep2)
20%: mortality at 25 ppm (24 h, Rep2)
